Measurements published in US20260041640A1 (INCYCLIX BIO, LLC, priority 2023, published 2026).
Like-named read-outs stand apart in the source and are kept apart here. Marks after values point to notes of the source that are not given here.

Tests used:
[1] = tested on: Ovcar-3; conditions: BLU-222: based on Ovcar-3 cell cycle data (maximum G1 arrest); read-out: Cellular IC50; cited from earlier work
[2] = cited from earlier work
[3] = Published human plasma PK of BLU-222 and PF-07104091 (estimated from 2023 ASCO presentations); format: in vivo; conditions: for Cmax to Cmin Ratio: estimated from published human results
Source text: This is under the assumption that off-target toxicity is driven by Cmax and efficacy is driven by time above therapeutic threshold (Table 5).

[4] = tested on: CCNE1-amplified cancers; conditions: BID dosing; cited from earlier work
[5] = treatment-related AEs, cited from earlier work
[6] = biological target: T1, CDK2/cyclin E (Homo sapiens, UniProt P24941); conditions: biochemical; read-out: Target IC50 CDK2/cyclin E; cited from earlier work
[7] = phase 1/2 trial, advanced solid tumors; cited from earlier work
[8] = biological target: T1, CDK2/cyclin E; conditions: intracellular; read-out: Nanobret IC50 CDK2/cyclin E; cited from earlier work
[9] = plasma, 400 mg BID, estimated from published graph
[10] = plasma, 600 mg BID, estimated from published graph

COCc1cc(C(=O)Nc2cc([C@H]3CC[C@@H](OC(=O)NC(C)C)C3)[nH]n2)n(C)n1 [PF-07104091]
IC50 [1]: < 100 nM | t1/2 ([2]; human, plasma): 2 to 3 h | MTD and monotherapy recommended dose for expansion (RDE) ([2]; human): 300 mg BID | Cmax ([2]; plasma, 300 mg BID, estimated from 2023 ASCO presentation): ~2000* ng/mL | C12 hr (Cmin at 12 hours) ([3]; 300 mg BID, estimated using Cmax of 2000 ng/mL and t1/2 of 2-3 hours): ~31-125* ng/mL | concentration at 12 h ([3]; human, 300 mg, read-out: C12 hr (Cmin at 12 hours)): 31.2 to 125 ng/mL | In Vivo efficacy (efficacious dose) [4]: ≥ 100 mg/kg BID | anemia ([5]; Grade 3): 8.6% | diarrhea ([5]; Grade 3): 8.6% | fatigue ([5]; Grade 3): 20.0% | nausea ([5]; Grade 3): 14.3% | vomiting ([5]; Grade 3): 2.9% | anemia ([5]; all grades): 45.7% | diarrhea ([5]; all grades): 48.6% | fatigue ([5]; all grades): 45.7% | nausea ([5]; all grades): 77.1% | vomiting ([5]; all grades): 48.6%

FC(F)Oc1cc(Nc2cnc3cnn(CC4CCOCC4)c3n2)n[nH]1 [BLU-222]
IC50 [1]: > 100 nM | IC50 [6]: 2.6 nM | C12 hr [2, 9]: 100* ng/mL | Cmax [2, 9]: 927* ng/mL | C12 hr [2, 10]: 120* ng/mL | Cmax [2, 10]: 2639* ng/mL | ocular adverse events (AEs) affecting vision, incidence [7]: 19% | ocular adverse events (AEs) affecting vision, patients [7]: 5 patients | IC50 [8]: 17.7 nM | Cmax to Cmin Ratio ([3]; 400 mg BID): 9.3 | Cmax to Cmin Ratio ([3]; 600 mg BID): 22 | In Vivo efficacy (efficacious dose) [4]: 100 mg/kg mg/kg BID
